Experimental data as given in ChEMBL document CHEMBL1152639, “Design, synthesis and nootropic activity of new analogues of sunifiram and sapunifiram, two potent cognition-enhancers” (Bioorg Med Chem, 2009).
Activity calls are given as the source filed them. No cut-off for these calls is given here.

Key:
[1] = test system: Mus musculus; experiment: Effect on inspection activity in ip dosed mouse by hole-board test; type: functional, organism-based
[2] = test system: Mus musculus; experiment: Ratio of MED for drug to MED for piracetam against scopolamine-induced amnesia in ip dosed mouse by passive-avoidance test; type: functional
[3] = test system: Mus musculus; experiment: Procognitive effect in ip dosed mouse assessed as inhibition of memory deficit by passive-avoidance test; type: functional; details: read-out: MED
[4] = test system: Mus musculus; experiment: Effect on spontaneous motility in ip dosed mouse by hole-board test; type: functional, organism-based
[5] = test system: Mus musculus; experiment: Toxicity in ip dosed mouse assessed as change motor coordination by rota rod test; type: organism-based; details: in vivo
[6] = test system: Mus musculus; experiment: Antiamnesic activity against scopolamine-induced amnesia in ip dosed mouse by passive-avoidance test; type: functional; details: read-out: MED
[7] = test system: Mus musculus; experiment: Toxicity in ip dosed mouse assessed as change in gross behavior; type: organism-based; details: in vivo

| Compound | Ratio [2] | minimal effective dose [6] [mg/kg] | further results |
| --- | --- | --- | --- |
| CCC(=O)N1CCN(C(=O)c2ccccc2)CC1 [SUNIFIRAM] | 30 | 0.001 | Activity [1]: inactive; minimal effective dose [3]: 0.01 mg/kg; Activity [4]: inactive; Activity [5]: Non-toxic; Activity [7]: Non-toxic |
| CCC(=O)N1CCN(C(=O)Cc2ccccc2)CC1 | – | 1 | – |
| CCNC(=O)C1CCN(S(=O)(=O)c2ccc(F)cc2)CC1 | – | 1 | – |
| CC(=O)N1CCCN(C(=O)c2ccccc2)C1 | – | 1 | – |
| CC(=O)N1CCCN(C(=O)c2ccccc2)CC1 | 30 | 0.01 | minimal effective dose [3]: 1 mg/kg |
| CC(=O)N1CCN(S(=O)(=O)c2ccc(F)cc2)C1 | – | 1 | – |
| CCC(=O)NC1CCN(C(C)=O)CC1 | – | 10 | – |
| CCCS(=O)(=O)N1CCCN(C(C)=O)CC1 | 30 | > 10 | – |
| CC(=O)N1CCN(C(=O)c2ccccc2)C1 | – | 1 | – |
| CCCS(=O)(=O)N1CCCN(C(=O)CC)C1 | – | > 10 | – |
| CCCS(=O)(=O)N1CCN(C(C)=O)C1 | – | 10 | – |
| CCC(=O)N1CCC(NC(C)=O)CC1 | – | > 10 | – |
| CCCS(=O)(=O)N1CCN(C(=O)CC)C1 | – | > 10 | – |
| CNC(=O)C1CCN(S(=O)(=O)c2ccc(F)cc2)CC1 | – | 0.1 | minimal effective dose [3]: 1 mg/kg |
| CCC(=O)N1CCCN(C(=O)c2ccccc2)C1 | – | 1 | – |
| NC(=O)CN1CCCC1=O [PIRACETAM] | – | 30 | Activity [1]: inactive; Activity [4]: inactive; Activity [5]: Non-toxic; Activity [7]: Non-toxic |
| CCC(=O)N1CCN(C(C)=O)CC1 | – | 10 | – |
| CC(=O)NC1CCN(S(=O)(=O)c2ccc(F)cc2)CC1 [SAPUNIFIRAM] | – | 0.01 | Activity [1]: inactive; minimal effective dose [3]: 0.1 mg/kg; Activity [4]: inactive; Activity [5]: Non-toxic; Activity [7]: Non-toxic |
| CC(=O)N1CCCN(C(=O)Cc2ccccc2)CC1 | 30 | 0.01 | minimal effective dose [3]: 1 mg/kg |

| Compound | Ratio [2] | minimal effective dose [6] [mg/kg] | further results |
| --- | --- | --- | --- |
| CCC(=O)N1CCN(S(=O)(=O)c2ccc(F)cc2)CC1 | 30 | 0.01 | – |
| CCCS(=O)(=O)N1CCN(C(=O)CC)CC1 | 30 | 1 | – |
| CCCS(=O)(=O)N1CCCN(C(=O)CC)CC1 | 30 | > 10 | – |
| CCCS(=O)(=O)N1CCN(C(C)=O)CC1 | 30 | 0.1 | – |
| CC(=O)N1CCCN(S(=O)(=O)c2ccc(F)cc2)C1 | – | 1 | – |
| CC(=O)N1CCN(S(=O)(=O)c2ccc(F)cc2)CC1 | 30 | 0.01 | – |
| CCC(=O)N1CCN(C(=O)Oc2ccccc2)CC1 | – | 10 | – |
| CC(=O)NC(=O)C1CCN(S(=O)(=O)c2ccc(F)cc2)CC1 | – | 1 | – |
| CCC(=O)N1CCN(C(=O)c2ccccc2)C1 | – | 1 | – |
| CC(=O)N1CCN(C(=O)c2ccccc2)CC1 | 30 | 10 | – |
| CCC(=O)N1CCCN(S(=O)(=O)c2ccc(F)cc2)CC1 | 30 | 1 | minimal effective dose [3]: 10 mg/kg |
| CCC(=O)N1CCCN(S(=O)(=O)c2ccc(F)cc2)C1 | – | 1 | – |
| CCC(=O)N1CCN(C(=O)Nc2ccccc2)CC1 | – | > 10 | – |
| CC(=O)N1CCCN(S(=O)(=O)c2ccc(F)cc2)CC1 | 30 | 1 | minimal effective dose [3]: 10 mg/kg |
| CCC(=O)N1CCN(S(=O)(=O)c2ccc(F)cc2)C1 | – | 1 | – |
| CCC(=O)N1CCN(C(=O)CC)CC1 | – | > 10 | – |
| CCCS(=O)(=O)N1CCCN(C(C)=O)C1 | – | 1 | – |
| CCC(=O)N1CCCN(C(=O)c2ccccc2)CC1 | 30 | 0.1 | minimal effective dose [3]: 1 mg/kg |
